Measured values: patent US7008941B2, “Reverse-turn mimetics and methods relating thereto” (Myriad Genetics, Inc., priority 2001, dated 2006)

Key:
neurokinin-1 receptor = neurokinin-1 receptor (Homo sapiens, UniProt P25103); assay: Tachykinin antagonism assay: inhibition of Substance P-induced calcium mobilization (FLIPR) in U373 MG cells; assay type: cell-based; conditions: Substance P 1 nM
Method: An assay measuring the ability of compounds 1–50 to antagonize binding of substance P peptide to its receptor neurokinin-1 was performed. Substance P is known to act upon cells via the mobilization of calcium (Bordey et al., Glia 11: 277–283, 1994). The compounds were assessed for their ability to inhibit the action of Substance P with the use of a Fluorescent Imaging Plate Reader (FLIPR) from Molecular Devices (Shroeder et al., J. Biomol. Screening 1: 75–80, 1996; U.S. Pat. No. 5,112,134; U.S. Pat. No. 4,968,148). […] This dye is similar to Fluo-3, Fluo-4, and Calcium Green dyes used by other researchers (Lin et al., Biotechniques 26: 318–326, 1999) in that it increases in fluorescence in the presence of calcium; the Molecular Devices version is preferable because the cells need not be washed following staining with the dye. […] Substance P was added in Hank's salt solution with 1% BSA to give a final concentration of 1 nM and the resultant change in fluorescence intensity was monitored for thirty seconds with an excitation wavelength of 480 nm and an emission of 515 nm. Some wells were maintained as controls which were not incubated with any compound, and the peak fluorescence readings resulting from the wells which received compounds were compared to these control wells in order to determine the degree of inhibition.

α4β1 integrin = molecular target: T1, α4β1 integrin (Homo sapiens, UniProt P05556+P13612); assay: Antagonism of binding of CS1 peptide to α4β1 integrin (calcein-labelled Ramos cell adhesion to biotinylated CS1 plate); assay type: cell-based; conditions: Ramos cells
T1 construct: Harvested Ramos cells; endogenous in cells; host or cells: Ramos cells
T1 sequence (P13612 34-1032): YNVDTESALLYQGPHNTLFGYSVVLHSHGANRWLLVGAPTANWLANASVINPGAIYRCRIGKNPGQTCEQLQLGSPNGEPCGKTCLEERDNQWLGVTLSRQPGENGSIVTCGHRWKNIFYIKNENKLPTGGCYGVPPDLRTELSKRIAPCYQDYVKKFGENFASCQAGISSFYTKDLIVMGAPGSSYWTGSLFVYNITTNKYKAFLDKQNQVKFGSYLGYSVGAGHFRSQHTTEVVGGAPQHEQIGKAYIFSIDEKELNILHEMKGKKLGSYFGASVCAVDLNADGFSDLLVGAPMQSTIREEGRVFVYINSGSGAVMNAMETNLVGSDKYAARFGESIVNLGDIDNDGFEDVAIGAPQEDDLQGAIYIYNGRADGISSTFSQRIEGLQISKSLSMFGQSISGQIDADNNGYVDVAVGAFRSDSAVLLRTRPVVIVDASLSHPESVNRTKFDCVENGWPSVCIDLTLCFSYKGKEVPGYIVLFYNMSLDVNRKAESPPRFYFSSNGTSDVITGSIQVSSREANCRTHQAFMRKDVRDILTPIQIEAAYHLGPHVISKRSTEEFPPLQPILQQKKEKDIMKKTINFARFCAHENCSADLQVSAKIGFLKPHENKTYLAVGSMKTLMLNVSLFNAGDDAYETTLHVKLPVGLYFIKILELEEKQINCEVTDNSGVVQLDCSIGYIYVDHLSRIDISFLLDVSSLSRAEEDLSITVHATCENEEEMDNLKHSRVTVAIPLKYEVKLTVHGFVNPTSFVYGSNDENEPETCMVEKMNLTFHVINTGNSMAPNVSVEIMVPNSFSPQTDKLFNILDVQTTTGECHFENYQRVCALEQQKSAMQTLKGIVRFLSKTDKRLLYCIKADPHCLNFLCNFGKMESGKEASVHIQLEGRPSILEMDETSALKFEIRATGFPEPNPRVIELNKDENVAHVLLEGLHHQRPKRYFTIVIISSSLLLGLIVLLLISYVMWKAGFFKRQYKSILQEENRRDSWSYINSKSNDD
T1 sequence (P05556 21-798): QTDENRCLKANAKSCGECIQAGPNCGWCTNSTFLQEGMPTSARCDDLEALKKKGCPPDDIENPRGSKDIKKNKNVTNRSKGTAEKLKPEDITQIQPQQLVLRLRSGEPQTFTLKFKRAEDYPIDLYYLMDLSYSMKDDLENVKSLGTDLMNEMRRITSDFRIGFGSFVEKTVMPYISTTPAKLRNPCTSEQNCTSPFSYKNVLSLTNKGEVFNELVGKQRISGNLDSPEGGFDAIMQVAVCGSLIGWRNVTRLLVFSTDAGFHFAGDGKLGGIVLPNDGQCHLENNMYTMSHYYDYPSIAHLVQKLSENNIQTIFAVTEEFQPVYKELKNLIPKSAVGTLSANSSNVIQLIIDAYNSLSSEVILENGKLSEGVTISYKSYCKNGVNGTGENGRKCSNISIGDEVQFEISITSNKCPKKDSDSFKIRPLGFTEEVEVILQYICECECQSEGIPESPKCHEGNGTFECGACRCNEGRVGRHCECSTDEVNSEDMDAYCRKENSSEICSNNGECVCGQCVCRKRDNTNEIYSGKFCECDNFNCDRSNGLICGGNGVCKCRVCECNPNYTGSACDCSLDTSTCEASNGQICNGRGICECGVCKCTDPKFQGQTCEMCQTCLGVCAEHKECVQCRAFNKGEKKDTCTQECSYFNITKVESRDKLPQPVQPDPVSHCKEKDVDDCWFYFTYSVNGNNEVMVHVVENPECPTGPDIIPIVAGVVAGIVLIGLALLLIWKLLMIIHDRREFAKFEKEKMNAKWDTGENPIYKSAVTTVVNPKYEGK
Method: In brief, 100 μL/well of a solution of biotinylated CS1 peptide (1 mg/100 mL of phosphate buffered saline (PBS)) was incubated in a NeutrAvidin plate (Pierce) for 1 h at room temperature. The plate was then washed 3× with distilled water and treated with 200 μL of blocking buffer (3% BSA in PBS) for at least 4 h. Blocked plates were washed as above. Harvested Ramos cells (10^7/mL) were resuspended in PBS containing 10 μL of calcein AM/mL and incubated 30 min in the dark. This suspension was diluted with 45 mL PBS and the cells harvested by centrifugation and aspiration. The cells were resuspended in binding buffer (˜5×10^5/mL). If cell lysis was to be monitored ethidium homodimer was added to the buffer to a final concentration of 5 μM. A solution (10 μL) of compound to be tested or control peptide was added to appropriate wells followed by 90 μL of the cell suspension. The plate was incubated at 37° C. for 1 h. […] Otherwise, the plate was washed 3×, 50 μL of lysis buffer was added to each well, the plate rocked in the dark for 10 min, and the fluorescence monitored at 485 nm excitation and 535 nm emission.

Chain of neurokinin-1 receptor (P25103 whole entry): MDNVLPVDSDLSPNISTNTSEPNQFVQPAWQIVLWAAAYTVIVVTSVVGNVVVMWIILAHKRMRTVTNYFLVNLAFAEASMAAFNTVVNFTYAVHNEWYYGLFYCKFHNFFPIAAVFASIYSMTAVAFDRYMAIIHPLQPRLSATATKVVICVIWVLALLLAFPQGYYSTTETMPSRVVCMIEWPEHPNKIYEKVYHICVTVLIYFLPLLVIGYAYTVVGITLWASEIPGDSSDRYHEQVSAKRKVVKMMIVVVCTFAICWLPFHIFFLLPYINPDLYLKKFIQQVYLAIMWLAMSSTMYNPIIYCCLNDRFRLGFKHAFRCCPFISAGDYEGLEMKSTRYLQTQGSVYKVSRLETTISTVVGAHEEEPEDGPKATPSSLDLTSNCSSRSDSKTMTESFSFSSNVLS

CC12OC(=O)[C@H](Cc3ccccc3)N1C(=O)[C@H]1CCCN1C2=O (stereo partly drawn) [Compound 45]
inhibition at 20 µM (neurokinin-1 receptor): > 25% | inhibition at 100 µM (α4β1 integrin): > 50%

O=C1C[C@H](Cc2ccccc2)N2C(=O)[C@H](Cc3ccc(O)cc3)N(CC3CCCCC3)C(=O)C2O1 (stereo partly drawn) [Compound 47]
inhibition at 100 µM (α4β1 integrin): > 50%
